Molecules are shown by their SMILES.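 How tested: cells in 96-well plates exposed to compound for 48 hours at five concentrations. GI50: concentration for 50% inhibition of growth. TGI: total growth inhibition.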

Experiment in all cases: NCI tumour cell line growth inhibition, 48 h
For experiment [1], the system named is SF-268 CNS.
The subject of experiment [2] is T-47D breast.
Experiment [3] concerns BT-549 breast.
The subject of experiment [4] is SF-539 CNS.
For experiment [5], the system named is SR leukemia.
In experiment [6] the test system is HT29 colon.
Experiment [7] deals with UO-31 renal.
Experiment [8] relates to SK-MEL-28 melanoma.
Experiment [9] concerns DU-145 prostate.
Experiment [10] concerns UACC-62 melanoma.

As for `COc1cccc(S(=O)(=O)NC2=NCCN2C(=S)SN2CCn3c2nsc3=S)c1`, the GI50 was 59.3 µM in [1]; 23.3 µM in experiment [2]; 29.9 µM in experiment [3]; 27.3 µM in experiment [4]; 18 µM in [5]; 40.2 µM in experiment [6]. In addition, the GI50 in experiment [7] was 23.3 µM; in [8] it was 31.4 µM; in experiment [9], 44.2 µM; in experiment [10], 28.6 µM. Also, the TGI is greater than 100 µM in experiment [1]; 51 µM in experiment [2]; 99.8 µM in experiment [3]; 70 µM in [4]; 51.3 µM in experiment [5]; greater than 100 µM in experiment [6]. The TGI is 49.1 µM in experiment [7], 74.2 µM in [8], greater than 100 µM in [9] and greater than 100 µM in experiment [10].
Regarding `OCc1ccc(-c2nc(-c3ccc4c(c3)OCO4)c(-c3ccccn3)[nH]2)cc1`, the GI50 in experiment [1] was greater than 25 µM; in experiment [2], greater than 23.2 µM; in experiment [3], greater than 25 µM; in [4] it was greater than 25 µM; in experiment [5] it was greater than 25 µM; in [6] it was greater than 25 µM. For the same molecule, the GI50 is greater than 23.6 µM in [7], greater than 25 µM in experiment [8], greater than 25 µM in [9] and greater than 25 µM in [10]. Besides, the TGI in [1], in experiment [2], in [3], in [4], in experiment [5] and in experiment [6] was greater than 25 µM in each case. Besides, the TGI in experiment [7], in experiment [8], in [9] and in experiment [10] was greater than 25 µM in each case.
`CCOC(=O)Cc1csc(NC(=O)C(OC(=O)c2ccc(Cl)cc2)c2ccccc2)n1` (stereo not given): the GI50 in [1] is 28.7 µM; in [2] it was 63.1 µM; in experiment [3], 25.9 µM; in [4] it was 25.3 µM; in experiment [5], 13.4 µM; in [6], 27 µM. Besides, the GI50 in [7] was 47.1 µM; in [8], 25.2 µM; in [9], 72.7 µM; in experiment [10], 20.3 µM. In addition, the TGI in experiment [1] was greater than 100 µM; in experiment [2], greater than 100 µM; in experiment [3], 56.9 µM; in experiment [4], 54.8 µM; in experiment [5], 58.7 µM; in experiment [6], 88 µM. Also, the TGI in experiment [7] is greater than 100 µM; in [8], 69.2 µM; in [9], greater than 100 µM; in experiment [10], 46.5 µM.
With `O=S(O)O.O=S(O)O.[Co].[NH2-].[NH2-].[NH2-].[NH2-]`, the GI50 in experiment [1], in experiment [2], in experiment [3], in [4], in experiment [5] and in [6] was greater than 100 µM in each case. Moreover, the GI50 in experiment [7], in experiment [8], in [9] and in experiment [10] was greater than 100 µM in each case. In addition, the TGI in experiment [1], in [2], in experiment [3], in experiment [4], in [5] and in [6] was greater than 100 µM each time. Besides, the TGI in experiment [7], in experiment [8], in experiment [9] and in experiment [10] was greater than 100 µM each time.
In the case of `Clc1cc(Br)ccc1-c1ccc(CNCC2CCNCC2)o1`, the GI50 in experiment [1] was 1.57 µM; in [2] it was 1.98 µM; in experiment [3], 1.73 µM; in [4], 1.65 µM; in experiment [5], 0.444 µM; in [6] it was 1.44 µM. The GI50 in [7] is 1.66 µM; in experiment [8], 1.89 µM; in experiment [9], 1.75 µM; in experiment [10], 1.69 µM. The TGI in experiment [1] amounted to 3.04 µM; in [2] it was 3.93 µM; in experiment [3], 3.5 µM; in experiment [4], 3.17 µM; in experiment [5], 2.65 µM; in experiment [6], 3.11 µM. Also, the TGI amounted to 3.24 µM in experiment [7], 3.42 µM in [8], 3.21 µM in experiment [9] and 3.21 µM in experiment [10].
On to `CCOC(=O)c1ccc(N2NC(=O)/C(=C/c3ccc([N+](=O)[O-])o3)C2=O)cc1`, for which the GI50 is 24.2 µM in experiment [1]; 8.92 µM in experiment [2]; 20.1 µM in experiment [3]; 18.8 µM in experiment [4]; 10.1 µM in experiment [5]; 15.8 µM in experiment [6]. In addition, the GI50 was 5.64 µM in [7], 18.6 µM in experiment [8], 18 µM in experiment [9] and 19.9 µM in [10]. In addition, the TGI in experiment [1] is greater than 55.3 µM; in experiment [2], 33.4 µM; in [3], 39.7 µM; in [4] it was 46 µM; in [5], 57.8 µM; in experiment [6] it was 36.2 µM. The TGI in experiment [7] is 13.8 µM; in experiment [8], 36 µM; in experiment [9], 32.3 µM; in experiment [10] it was 43 µM.
Regarding `CC(C)(C)c1cc(C[P+](c2ccccc2)(c2ccccc2)c2ccccc2)cc(C(C)(C)C)c1O`, the GI50 is 0.429 µM in [1]; 0.2 µM in [2]; 0.33 µM in experiment [3]; 0.854 µM in [4]; 0.403 µM in experiment [5]; 0.184 µM in [6]. The GI50 in [7] is 2.28 µM; in experiment [8], 0.637 µM; in experiment [9], 0.593 µM; in [10], 0.365 µM. Also, the TGI in experiment [1] turned out to be 15 µM; in [2], 1.01 µM; in experiment [3], 0.898 µM; in experiment [4] it was 7.83 µM; in experiment [5] it was 2.5 µM; in experiment [6], 1.65 µM. For the same molecule, the TGI in [7] was determined as 7.14 µM; in [8], 8.21 µM; in experiment [9], 11.8 µM; in experiment [10], 1.66 µM.
